Reference: a compilation of properties of binary mixtures (doi:10.1016/j.fluid.2019.112447)

Test: xn = mol fraction of the nth substance listed
Details: 101 kPa

CCOS(=O)(=O)[O-].CC[n+]1ccn(C)c1 + CCC(C)O
viscosity (298.15 K, x1 = 0.1032): 4.62 mPa·s | viscosity (298.15 K, x1 = 0.2937): 9.73 mPa·s | viscosity (298.15 K, x1 = 0.3936): 14.02 mPa·s | viscosity (298.15 K, x1 = 0.4906): 19.79 mPa·s | viscosity (298.15 K, x1 = 0.5916): 28.15 mPa·s | viscosity (298.15 K, x1 = 0.8916): 71.7 mPa·s | viscosity (298.15 K, x1 = 1): 96.2 mPa·s | viscosity (303.15 K, x1 = 0.1032): 4.29 mPa·s | viscosity (303.15 K, x1 = 0.2937): 9.16 mPa·s | viscosity (303.15 K, x1 = 0.3936): 12.67 mPa·s | viscosity (303.15 K, x1 = 0.5916): 24 mPa·s | viscosity (303.15 K, x1 = 0.6944): 33 mPa·s | viscosity (303.15 K, x1 = 0.7957): 44 mPa·s | viscosity (303.15 K, x1 = 1): 75.9 mPa·s | viscosity (308.15 K, x1 = 0.1032): 3.46 mPa·s | viscosity (308.15 K, x1 = 0.2027): 5.31 mPa·s | viscosity (308.15 K, x1 = 0.2937): 7.53 mPa·s | viscosity (308.15 K, x1 = 0.4906): 14.29 mPa·s | viscosity (308.15 K, x1 = 0.5916): 20.49 mPa·s | viscosity (308.15 K, x1 = 0.6944): 27.81 mPa·s | viscosity (308.15 K, x1 = 0.7957): 36.7 mPa·s | viscosity (308.15 K, x1 = 1): 60.7 mPa·s | viscosity (313.15 K, x1 = 0.1032): 2.94 mPa·s | viscosity (313.15 K, x1 = 0.2937): 6.51 mPa·s | viscosity (313.15 K, x1 = 0.4906): 13.06 mPa·s | viscosity (313.15 K, x1 = 0.6944): 23.65 mPa·s | viscosity (313.15 K, x1 = 0.7957): 30.7 mPa·s | viscosity (313.15 K, x1 = 0.8916): 38.7 mPa·s | viscosity (318.15 K, x1 = 0.1032): 2.56 mPa·s | viscosity (318.15 K, x1 = 0.2937): 5.76 mPa·s | viscosity (318.15 K, x1 = 0.3936): 8.37 mPa·s | viscosity (318.15 K, x1 = 0.4906): 11.43 mPa·s | viscosity (318.15 K, x1 = 0.5916): 15.38 mPa·s | viscosity (318.15 K, x1 = 0.6944): 20.32 mPa·s | viscosity (318.15 K, x1 = 0.7957): 26.1 mPa·s | viscosity (318.15 K, x1 = 0.8916): 32.5 mPa·s | viscosity (318.15 K, x1 = 1): 40.9 mPa·s | viscosity (323.15 K, x1 = 0.1032): 2.03 mPa·s | viscosity (323.15 K, x1 = 0.2027): 3.36 mPa·s | viscosity (323.15 K, x1 = 0.3936): 7.36 mPa·s | viscosity (323.15 K, x1 = 0.4906): 10.09 mPa·s | viscosity (323.15 K, x1 = 0.5916): 13.57 mPa·s | viscosity (323.15 K, x1 = 0.6944): 17.64 mPa·s | viscosity (323.15 K, x1 = 0.7957): 22.35 mPa·s | viscosity (323.15 K, x1 = 0.8916): 27.4 mPa·s | viscosity (323.15 K, x1 = 1): 33.8 mPa·s

CC[n+]1ccn(C)c1.O=S(=O)([O-])C(F)(F)F + CCC(C)O
viscosity (298.15 K, x1 = 0.1092): 3.95 mPa·s | viscosity (298.15 K, x1 = 0.1945): 5.32 mPa·s | viscosity (298.15 K, x1 = 0.2945): 6.57 mPa·s | viscosity (298.15 K, x1 = 0.3938): 7.9 mPa·s | viscosity (298.15 K, x1 = 0.4988): 10.59 mPa·s | viscosity (298.15 K, x1 = 0.5952): 15.33 mPa·s | viscosity (298.15 K, x1 = 0.6907): 22.63 mPa·s | viscosity (298.15 K, x1 = 0.903): 39.43 mPa·s | viscosity (303.15 K, x1 = 0.1092): 3.47 mPa·s | viscosity (303.15 K, x1 = 0.1945): 4.65 mPa·s | viscosity (303.15 K, x1 = 0.2945): 5.76 mPa·s | viscosity (303.15 K, x1 = 0.6907): 19.37 mPa·s | viscosity (303.15 K, x1 = 0.903): 33.21 mPa·s | viscosity (303.15 K, x1 = 1): 38.31 mPa·s | viscosity (308.15 K, x1 = 0.1092): 3.09 mPa·s | viscosity (308.15 K, x1 = 0.1945): 4.1 mPa·s | viscosity (308.15 K, x1 = 0.2945): 5.07 mPa·s | viscosity (308.15 K, x1 = 0.4988): 8.23 mPa·s | viscosity (308.15 K, x1 = 0.5952): 11.65 mPa·s | viscosity (308.15 K, x1 = 0.6907): 16.75 mPa·s | viscosity (308.15 K, x1 = 0.7986): 22.22 mPa·s | viscosity (308.15 K, x1 = 1): 32.28 mPa·s | viscosity (313.15 K, x1 = 0.1092): 2.75 mPa·s | viscosity (313.15 K, x1 = 0.2945): 4.51 mPa·s | viscosity (313.15 K, x1 = 0.3938): 5.5 mPa·s | viscosity (313.15 K, x1 = 0.7986): 19.09 mPa·s | viscosity (313.15 K, x1 = 0.903): 24.05 mPa·s | viscosity (318.15 K, x1 = 0.1092): 2.46 mPa·s | viscosity (318.15 K, x1 = 0.1945): 3.24 mPa·s | viscosity (318.15 K, x1 = 0.2945): 4.03 mPa·s | viscosity (318.15 K, x1 = 0.3938): 4.94 mPa·s | viscosity (318.15 K, x1 = 0.5952): 9.13 mPa·s | viscosity (318.15 K, x1 = 0.6907): 12.84 mPa·s | viscosity (318.15 K, x1 = 0.7986): 16.7 mPa·s | viscosity (318.15 K, x1 = 1): 23.86 mPa·s | viscosity (323.15 K, x1 = 0.1092): 2.21 mPa·s | viscosity (323.15 K, x1 = 0.1945): 2.9 mPa·s | viscosity (323.15 K, x1 = 0.2945): 3.61 mPa·s | viscosity (323.15 K, x1 = 0.3938): 4.44 mPa·s | viscosity (323.15 K, x1 = 0.4988): 5.91 mPa·s | viscosity (323.15 K, x1 = 0.5952): 8.17 mPa·s | viscosity (323.15 K, x1 = 0.7986): 14.66 mPa·s | viscosity (323.15 K, x1 = 1): 20.75 mPa·s

CCC(C)O (centres undefined) + CCOS(=O)(=O)[O-].CC[n+]1ccn(C)c1
viscosity (298.15 K, x2 = 0): 2.58 mPa·s | viscosity (303.15 K, x2 = 0): 2.27 mPa·s | viscosity (313.15 K, x2 = 0): 1.77 mPa·s | viscosity (318.15 K, x2 = 0): 1.58 mPa·s | viscosity (323.15 K, x2 = 0): 1.41 mPa·s

CCC(C)O (centres undefined) + CC[n+]1ccn(C)c1.O=S(=O)([O-])C(F)(F)F
viscosity (298.15 K, x2 = 0): 2.58 mPa·s | viscosity (303.15 K, x2 = 0): 2.27 mPa·s | viscosity (313.15 K, x2 = 0): 1.77 mPa·s | viscosity (318.15 K, x2 = 0): 1.58 mPa·s | viscosity (323.15 K, x2 = 0): 1.41 mPa·s
